Laboratory results as given in patent publication US9776972B2, “Pyrazole derivatives as arginine methyltransferase inhibitors and uses thereof” (priority 2013, dated 2017).

target: T1, Human CARM1 (PRMT4) (Homo sapiens, UniProt Q86X55); assay: CARM1 Biochemical Assay (3H-SAM Flashplate, peptide substrate); conditions: single experiment or average of multiple experiments
T1 construct: Flag-CARM1-His; made in house; host or cells: HEK 293F cells (BacMam baculovirus)
T1 sequence (Q86X55 1-585 isoform Q86X55-1): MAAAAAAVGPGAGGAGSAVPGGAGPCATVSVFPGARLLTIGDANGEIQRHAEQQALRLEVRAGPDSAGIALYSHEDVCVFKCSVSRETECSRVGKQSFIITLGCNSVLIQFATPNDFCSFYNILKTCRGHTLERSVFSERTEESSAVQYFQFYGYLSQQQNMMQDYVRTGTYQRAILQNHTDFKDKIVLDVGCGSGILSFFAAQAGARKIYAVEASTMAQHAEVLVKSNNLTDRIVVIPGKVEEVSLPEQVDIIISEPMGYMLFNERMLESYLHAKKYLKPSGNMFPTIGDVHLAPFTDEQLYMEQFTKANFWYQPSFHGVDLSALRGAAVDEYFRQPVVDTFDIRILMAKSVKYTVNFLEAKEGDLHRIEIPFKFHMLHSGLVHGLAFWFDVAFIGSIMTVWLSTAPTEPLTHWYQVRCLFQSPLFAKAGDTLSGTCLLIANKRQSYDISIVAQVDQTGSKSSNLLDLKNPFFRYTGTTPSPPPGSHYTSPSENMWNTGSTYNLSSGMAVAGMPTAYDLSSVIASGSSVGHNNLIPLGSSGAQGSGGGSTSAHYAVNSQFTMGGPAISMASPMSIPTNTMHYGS
Description: S-adenosylmethionine (SAM), S-adenosylhomocysteine (SAH), bicine, Tween20, dimethylsulfoxide (DMSO), bovine skin gelatin (BSG), sodium butyrate and Tris(2-carboxyethyl)phosphine hydrochloride solution (TCEP) were purchased from Sigma-Aldrich at the highest level of purity possible. ^3H-SAM was purchase from American Radiolabeled Chemicals with a specific activity of 80 Ci/mmol. 384-well streptavidin Flashplates were purchased from PerkinElmer.
Peptide representative of human histone H3 residues 16-30 was synthesized with an N-terminal linker-affinity tag motif and a C-terminal amide cap by 21st Century Biochemicals. […] The sequence was Biot-Ahx-[…]-amide and contained a monomethylated arginine at position 26 (SEQ ID NO.: 14).
Recombinant baculovirus were generated according to Bac-to-Bac kit instructions (Life Technologies). […] Infections were carried out at 37° C. for 48 hours, harvested by centrifugation, and stored at −80° C. for purification.
Column was washed with 500 mM NaCl in buffer A and Flag-CARM1-His was eluted with 200 ug/ml FLAG peptide in buffer A. Pooled fractions were dialyzed in 20 mM Tris, 150 mM NaCl, 5% glycerol and 1 mM DTT, pH 7.8.
General Procedure for CARM1 Enzyme Assays on Peptide Substrates.
The assays were all performed in a buffer consisting of 20 mM Bicine (pH=7.6), 1 mM TCEP, 0.005% BSG, and 0.002% Tween 20, prepared on the day of use. […] DMSO (1 ul) was added to Columns 11, 12, 23, 24, rows A-H for the maximum signal control and 1 ul of SAH, a known product and inhibitor of CARM1, was added to columns 11, 12, 23, 24, rows I-P for the minimum signal control. A cocktail (40 ul) containing the CARM1 enzyme was added by Multidrop Combi (Thermo-Fisher). The compounds were allowed to incubate with CARM1 for 30 min at room temperature, then a cocktail (10 ul) containing ^3H-SAM and peptide was added to initiate the reaction (final volume=51 ul). […] The assays were stopped by the addition of non-radiolabeled SAM (10 ul) to a final concentration of 300 uM, which dilutes the ^3H-SAM to a level where its incorporation into the peptide substrate is no longer detectable. 50 ul of the reaction in the 384-well polypropylene plate was then transferred to a 384-well Flashplate and the biotinylated peptides were allowed to bind to the streptavidin surface for at least 1 hour before being washed once with 0.1% Tween20 in a Biotek ELx405 plate washer. The plates were then read in a PerkinElmer TopCount plate reader to measure the quantity of ^3H-labeled peptide bound to the Flashplate surface, measured as disintegrations per minute (dpm) or alternatively, referred to as counts per minute (cpm).
Where dpm=disintegrations per minute, cmpd=signal in assay well, and min and max are the respective minimum and maximum signal controls.
Where top and bottom are the normally allowed to float, but may be fixed at 100 or 0 respectively in a 3-parameter fit. The Hill Coefficient normally allowed to float but may also be fixed at 1 in a 3-parameter fit. Y is the % inhibition and X is the compound concentration.

IC50 [µM]	SMILES
2.24	CNCCN(C)Cc1cn(C2CC2)nc1-c1ccc(F)cc1 [Compound 13]
0.97	CNCCN(C)Cc1cnn(C2CC2)c1-c1ccc(F)cc1 [Compound 14]
3.4	CNCCN(C)Cc1cn(C(C)C)nc1-c1ccc(F)cc1 [Compound 15]
0.656	CNCCN(C)Cc1cn[nH]c1-c1cc(F)cc(F)c1 [Compound 18]
4.92	CN(CCN)Cc1n[nH]cc1-c1ccc(C2CCOCC2)cc1 [Compound 145]
5.77	COc1ccc(-c2n[nH]cc2CN(C)CCN)c(Cl)c1 [Compound 146]
1.3	CN(CCN)Cc1c[nH]nc1-c1cccc(N(C)C)c1 [Compound 149]
2.42	CCOC(=O)c1cccc(-c2n[nH]cc2CN(C)CCN)c1 [Compound 150]
8.32	COc1cc(F)ccc1-c1n[nH]cc1CN(C)CCN [Compound 151]
6.87	Cc1cc(F)ccc1-c1n[nH]cc1CN(C)CCN [Compound 152]
2.06	COc1ccc(-c2n[nH]cc2CN(C)CCN)cc1 [Compound 153]
6.74	CN(CCN)Cc1c[nH]nc1-c1cc(Cl)ccc1F [Compound 156]
6.13	Cc1ccccc1-c1n[nH]cc1CN(C)CCN [Compound 161]
0.612	Cc1ccc(-c2n[nH]cc2CN(C)CCN)cc1 [Compound 162]
0.2	CCn1cc(CN(C)CCNC)c(-c2ccc(OC(C)C)cc2)n1 [Compound 213]
0.168	CNCCN(C)Cc1cn(C2CCCC2)nc1-c1ccc(OC(C)C)cc1 [Compound 214]
0.299	CNCCN(C)Cc1cn(C2CCOC2)nc1-c1ccc(OC(C)C)cc1 (centres unmarked) [Compound 215]
0.285	CNCCN(C)Cc1cnn(C2CCOC2)c1-c1ccc(OC(C)C)cc1 (centres unmarked) [Compound 216]
0.62	CNCCN(C)Cc1cn(Cc2ccccc2)nc1-c1ccc(OC(C)C)cc1 [Compound 217]
0.414	C=CCn1cc(CN(C)CCNC)c(-c2ccc(OC(C)C)cc2)n1 [Compound 218]
0.142	C=CCn1ncc(CN(C)CCNC)c1-c1ccc(OC(C)C)cc1 [Compound 219]

SMILES	IC50 [µM]
CNCCN(C)Cc1cnn(C(C)C)c1-c1ccc(F)cc1 [Compound 16]	6.74
CNCCN(C)Cc1cn[nH]c1-c1ccc(C#N)cc1 [Compound 17]	1.56
